Test system: 253994-281-T-J1-PDC KRAS-mutant spheroids with HUVEC/MSC, viability
Assay: Anticancer human tumor 253994-281-T-J1-PDC patient-derived colorectal carcinoma cell line growth inhibition [KRAS2]
Conditions: for IC50: curve of first compound; for viability, T/C: stronger effect = lower value
Outline: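 KRAS-mutant tumor cells were grown as spheroids with HUVEC endothelial cells and human MSCs as stroma. Targeted agents were tested alone and with KRAS pathway inhibitors. Doses started at or near clinical Cmax, or 10 microM, descending half-log.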

[1] = second compound 0.1 µM, first compound 0.0316 µM
[2] = second compound 0.1 µM, first compound 0.1 µM
[3] = second compound 0.1 µM, first compound 0.316 µM
[4] = second compound 0.1 µM, first compound 1 µM
[5] = second compound 0.1 µM, first compound 3.16 µM
[6] = second compound 0.1 µM, first compound 10 µM
[7] = second compound 0.316 µM, first compound 0.0316 µM
[8] = second compound 0.316 µM, first compound 0.1 µM
[9] = second compound 0.316 µM, first compound 0.316 µM
[10] = second compound 0.316 µM, first compound 1 µM
[11] = second compound 0.316 µM, first compound 3.16 µM
[12] = second compound 0.316 µM, first compound 10 µM
[13] = second compound 1 µM, first compound 0.0316 µM
[14] = second compound 1 µM, first compound 0.1 µM
[15] = second compound 1 µM, first compound 0.316 µM
[16] = second compound 1 µM, first compound 1 µM
[17] = second compound 1 µM, first compound 3.16 µM
[18] = second compound 1 µM, first compound 10 µM
[19] = second compound 3.16 µM, first compound 0.0316 µM
[20] = second compound 3.16 µM, first compound 0.1 µM
[21] = second compound 3.16 µM, first compound 0.316 µM
[22] = second compound 3.16 µM, first compound 1 µM
[23] = second compound 3.16 µM, first compound 3.16 µM
[24] = second compound 3.16 µM, first compound 10 µM
[25] = second compound 10 µM, first compound 0.0316 µM
[26] = second compound 10 µM, first compound 0.1 µM
[27] = second compound 10 µM, first compound 0.316 µM
[28] = second compound 10 µM, first compound 1 µM
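Note: spheroids exposed to agents for seven days before readout.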
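Throughout, for viability, T/C: percent of DMSO vehicle control viability.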

| SMILES | IC50 (second compound 0.1 µM) | IC50 (second compound 0.316 µM) | IC50 (second compound 1 µM) | IC50 (second compound 3.16 µM) | viability, T/C [1] | viability, T/C [2] | viability, T/C [3] | viability, T/C [4] | viability, T/C [7] | viability, T/C [8] | viability, T/C [9] | viability, T/C [10] | viability, T/C [13] | viability, T/C [14] | viability, T/C [15] | viability, T/C [16] | viability, T/C [19] | viability, T/C [20] | viability, T/C [21] | viability, T/C [22] | further results |
| --- | --- | --- | --- | --- | --- | --- | --- | --- | --- | --- | --- | --- | --- | --- | --- | --- | --- | --- | --- | --- | --- |
| COc1cc(Nc2ncc3c(n2)-c2ccc(Cl)cc2C(c2c(F)cccc2OC)=NC3)ccc1C(=O)O + CNCc1ccccc1-c1csc(C(C)Nc2nc(C)nc3cc(OC)c(OC)cc23)c1 | 39.5 nM | < 31.6 nM | < 31.6 nM | < 31.6 nM | 54.1% | 28.8% | 25.6% | 31.4% | 49.7% | 31.7% | 28.5% | 30.3% | 39.1% | 25.6% | 25.1% | 30% | 9.35% | 1.45% | 1.32% | 0.29% | IC50 (second compound 10 µM): < 31.6 nM; viability, T/C [5]: 30.5%; viability, T/C [6]: 45%; viability, T/C [11]: 39.5%; viability, T/C [12]: 33.5%; viability, T/C [17]: 26.2%; viability, T/C [18]: 30.9%; viability, T/C [23]: 4.67%; viability, T/C [24]: 15.5%; viability, T/C [25]: 0.14%; viability, T/C [26]: 0.15%; viability, T/C [27]: 0.15%; viability, T/C [28]: 0.14%; viability, T/C (second compound 10 µM, first compound 3.16 µM): 0.15%; viability, T/C (second compound 10 µM, first compound 10 µM): 0.18% |
| CCN1CCN(Cc2ccc(Nc3ncc(F)c(-c4cc(F)c5nc(C)n(C(C)C)c5c4)n3)nc2)CC1 + C=CC(=O)N1CCN(c2nc(=O)n(-c3c(C)ccnc3C(C)C)c3nc(-c4c(O)cccc4F)c(F)cc23)C(C)C1 | > 1000 nM | > 1000 nM | > 1000 nM | 851 nM | 84.2% | 79.2% | 73.9% | 52.5% | 87.1% | 94.8% | 74.9% | 50.4% | 89.5% | 81.4% | 76.7% | 50.6% | 88.1% | 90.8% | 79.5% | 44.6% | IC50 (second compound 10 µM): 706 nM; viability, T/C (second compound 0.1 µM, first compound 0.00316 µM): 89.8%; viability, T/C (second compound 0.1 µM, first compound 0.01 µM): 92.3%; viability, T/C (second compound 0.316 µM, first compound 0.00316 µM): 86.8%; viability, T/C (second compound 0.316 µM, first compound 0.01 µM): 99.2%; viability, T/C (second compound 1 µM, first compound 0.00316 µM): 95.8%; viability, T/C (second compound 1 µM, first compound 0.01 µM): 94.2%; viability, T/C (second compound 3.16 µM, first compound 0.00316 µM): 103%; viability, T/C (second compound 3.16 µM, first compound 0.01 µM): 101%; viability, T/C (second compound 10 µM, first compound 0.00316 µM): 95.1%; viability, T/C (second compound 10 µM, first compound 0.01 µM): 107%; viability, T/C [25]: 93.2%; viability, T/C [26]: 97.6%; viability, T/C [27]: 79.3%; viability, T/C [28]: 37% |
| O=C(c1cc(Cc2n[nH]c(=O)c3ccccc23)ccc1F)N1CCN(C(=O)C2CC2)CC1 + C=CC(=O)N1CCN(c2nc(OCC3CCCN3C)nc3c2CCN(c2cccc4cccc(C)c24)C3)CC1CC#N | > 10000 nM | > 10000 nM | > 10000 nM | < 31.6 nM | 83.1% | 101% | 94.1% | 87.1% | 80.3% | 81% | 83.8% | 73% | 87.4% | 113% | 88.2% | 90.7% | 32.7% | 13% | 15.7% | 24.1% | IC50 (second compound 0.0316 µM): > 10000 nM; viability, T/C (second compound 0.0316 µM, first compound 0.0316 µM): 108%; viability, T/C (second compound 0.0316 µM, first compound 0.1 µM): 100%; viability, T/C (second compound 0.0316 µM, first compound 0.316 µM): 95.8%; viability, T/C (second compound 0.0316 µM, first compound 1 µM): 90.5%; viability, T/C (second compound 0.0316 µM, first compound 3.16 µM): 90.5%; viability, T/C (second compound 0.0316 µM, first compound 10 µM): 82.8%; viability, T/C [5]: 82.1%; viability, T/C [6]: 85.2%; viability, T/C [11]: 79.6%; viability, T/C [12]: 89.6%; viability, T/C [17]: 81.4%; viability, T/C [18]: 80.8%; viability, T/C [23]: 21%; viability, T/C [24]: 21.1% |
